US20240238223A1 (Shenyang Pharmaceutical University, priority 2023, published 2024)
Where “and” joins values, the source holds several entries; their conditions need not be identical. Identical values can stand only once. Like-named read-outs stand apart in the source and are kept apart here.

Experiments:
[1] = tested on: paclitaxel-resistant A549/T cells; assay: cells; conditions: Homo sapiens, A549, 96 h; for inhibition at 5 µM / inhibition at 10 µM / inhibition at 20 µM: read-out: Growth inhibition rate
Method: (§6) After incubation overnight, 100 μL of culture medium supplemented with various concentrations of compounds was added to each well. After incubation for 96 h, 50 μL of methyl thiazolyl tetrazolium (MTT) solution (2 mg/mL) was added to each well and incubated at 37° C. for 4 h. The culture medium was suctioned, and the cells were dissolved in 200 μL of DMSO. The absorbance at 570 nm was measured by using a microplate reader. The growth inhibition rate GI50 was calculated by GraphPadPrism5.

A549 cells = assay: Growth inhibition of parental NSCLC cells; type: cell-based, human
Method: (§1) The growth inhibition rate GI50 was calculated by GraphPadPrism5.

A549/T xenograft = A549/T xenograft model in BALB/c-nu mice; type: in vivo; conditions: i.p. every other day, 10 times, colchicine 0.5 mg/kg, paclitaxel 10 mg/kg, methylaminocolchicine 0.25 and 0.5 mg/kg
Method: Male BALB/c-nu mice (aged 6-8 weeks and weighing 18-20 g) were purchased from Beijing HFK Bioscience Co., Ltd. A549/T cells in logarithmic growth phase were mixed with Matrigel, and inoculated subcutaneously in the right armpit of a BALB/c-nu mouse at a density of 5×10^6 cells/mouse.
The mental state of the mice was monitored every day. The mouse weight was measured and recorded, and mouse weight change curves were plotted based on the average body weight of each group. The long and short diameters of tumors were measured every two days, and the tumor volume was calculated according to the tumor volume calculation formula: tumor volume=(long diameter×short diameter^2)/2. Tumor growth curves were plotted (FIG. 1A).

HCT-116 = assay: Cell growth inhibition assay, adherent cells, MTT, 96 h; type: cell-based; conditions: Homo sapiens; HCT-116, colorectal cancer, 96 h MTT
Method: (§2) Human acute myeloid leukemia cells HL-60, human chronic myeloid leukemia cells K562, human prostate cancer cell line PC-3, human hepatoma cells HepG-2, human colon cancer cells HC-T116, and human cervical cancer cell line Hela were purchased from American Type Culture Collection (ATCC). Human acute myeloid leukemia cells MOLM-13 were purchased from DSMZ-Deutsche Sammlung von Mikroorganismen und Zellkulturen GmbH (Braunschweig Germany).
as §1

PC-3 = assay: as above; type: cell-based; conditions: Homo sapiens; PC-3, prostatic cancer, 96 h MTT
Method: as §2, §1

HepG-2 = assay: as above; type: cell-based; conditions: Homo sapiens, HepG2; HepG-2, liver cancer, 96 h MTT
Method: as §2, §1

Hela = assay: as above; type: cell-based; conditions: Homo sapiens, cervical carcinoma, 96 h MTT
Method: as §2, §1

KB cells = assay: Growth inhibition of parental oral epidermoid carcinoma cells; type: cell-based; conditions: Homo sapiens
Method: as §1

[2] = tested on: vincristine-resistant KB/V cells; assay: Growth inhibition of vincristine-resistant oral epidermoid carcinoma cells; conditions: for GI50: Homo sapiens, KBV, read-out: GI50 ± SD; for RI: resistance index: ratio of GI50 KB/V to KB
Method: (§7) Adherent cells: PC-3, HepG-2, HCT-116, and Hela cells were inoculated into a 96-well plate at a density of 1,000-3,500 cells/mL. After incubation overnight, 100 μL of culture medium supplemented with various concentrations of compounds was added to each well. After incubation for 96 h, 50 μL of methyl thiazolyl tetrazolium (MTT) solution (2 mg/mL) was added to each well and incubated at 37° C. for 4 h. The culture medium was suctioned, and the cells were dissolved in 200 μL of DMSO. The absorbance at 570 nm was measured by using a microplate reader. The growth inhibition rate GI50 was calculated by GraphPadPrism5.
(§8) The cells used in the assay included human NSCLC A549 cells and paclitaxel-resistant A549/T cells, human breast cancer MCF-7 cells and paclitaxel-resistant MCF-7/T cells, human breast cancer MX-1 cells and paclitaxel-resistant MX-1/T cells, and human oral epidermoid carcinoma KB cells and vincristine-resistant KB/V cells.
(§9) A549 and A549/T cells were cultured in 1640 Medium, while MX-1, MX-1/T, MCF-7, MCF-7/T, KB, and KB/V cells were cultured in DMEM supplemented with 10% inactivated FBS, 10 mmol/L L-glutamine, 100 U/mL penicillin, and 100 μg/mL streptomycin in a 37° C., 5% CO2 and saturated humidity incubator.

[3] = tested on: paclitaxel-resistant MX-1/T cells; assay: Growth inhibition of paclitaxel-resistant breast cancer cells; conditions: for GI50: Homo sapiens, read-out: GI50 ± SD; for RI: resistance index: ratio of GI50 MX-1/T to MX-1
Method: as §7, §8, §9

HL-60 = assay: Cell growth inhibition assay, suspension cells, Trypan Blue counting, 72 h; type: cell-based; conditions: Homo sapiens, HL-60, leukemia
Text: as §2
(§3) Suspension cells: Leukemia cells HL-60, MOLM-13, and K562 were inoculated into a 24-well plate at a density of 0.5-1×10^5 cells/mL. Subsequently, the cells were incubated with different concentrations of compounds in an incubator for 72 h. Then, the culture plate was removed from the incubator. In each well, the cells and the compounds were mixed well; 50 μL of cell suspension was transferred and mixed well with 50 μL of Trypan Blue (0.4%), followed by counting microscopically.
(§4) Cell growth inhibition rate was calculated according to the following formula. The growth inhibition rate GI50 (the concentration that results in inhibiting cell growth by 50%) was calculated by GraphPadPrism5.
(§5) Growth inhibition rate=(1−Cell count of the drug group/Cell count of the control group)×100%.

MOLM-13 = assay: as above; type: cell-based; conditions: Homo sapiens, MOLM-13, leukemia
Text: as §2, §3, §4, §5

K562 = assay: as above; type: cell-based; conditions: Homo sapiens, K562, leukemia
Text: as §2, §3, §4, §5

[4] = tested on: paclitaxel-resistant MCF-7/T cells; assay: Growth inhibition of paclitaxel-resistant breast cancer cells; type: cell-based, human; conditions: for GI50: Homo sapiens, MCF7, MCF-7/T paclitaxel-resistant cells; for RI: resistance index: ratio of GI50 MCF-7/T to MCF-7
Method: as §1

[5] = tested on: paclitaxel-resistant A549/T cells; assay: cells; conditions: Homo sapiens, A549, read-out: GI50 ± SD
Method: as §7, §8, §9
(§10) Cell lines used in the assay included human NSCLC A549 cells and paclitaxel-resistant A549/T cells.

MX-1 cells = assay: Growth inhibition of parental breast cancer cells; type: cell-based; conditions: Homo sapiens, MX1; MX-1 parental cells
Method: as §1

MCF-7 cells = assay: Growth inhibition of parental breast cancer cells; type: cell-based; conditions: Homo sapiens, MCF7; MCF-7 parental cells
Method: as §1

[6] = tested on: paclitaxel-resistant A549/T cells; conditions: 96 h
Method: as §6

Porcine brain tubulin [7] = biological target: T1, Porcine brain tubulin (Sus scrofa, UniProt P02550+P02554); design: In vitro tubulin polymerization assay was carried out using purified tubulin; purchased Cytoskeleton, Denver, CO BK011P; host or cells: porcine brain (tissue-purified); conditions: It has been known; cited from earlier work
[8] = tested on: paclitaxel-resistant A549/T cells; conditions: for GI50: A549/T cells, salts (Table 3)
Method: as §7, §8, §9, §10

Porcine brain tubulin [9] = biological target: T1, Porcine brain tubulin
Method: In vitro tubulin polymerization assay was carried out using purified tubulin. BK011P-Tubulin Polymerization Assay Kit (Cytoskeleton, Denver, CO) was used. Porcine brain tubulin solution (2 mg/mL) was prepared by using tubulin buffer (80 mM PIPES, 2.0 mM MgCl2, 0.5 mM EGTA, 15% v/v glycerol, and 1 mM GTP). […] Fluorescence intensities (ex-360 nm, em-450 nm) was measured and monitored every 1 min, for consecutive 80 min (FIG. 2).

[10] = Homo sapiens, A549 parental cells, read-out: GI50 ± SD
[11] = A549 cells, salts (Table 3), read-out: GI50
[12] = ratio of GI50 A549/T to A549, salts (Table 3)

T1 sequence (P02550 whole entry): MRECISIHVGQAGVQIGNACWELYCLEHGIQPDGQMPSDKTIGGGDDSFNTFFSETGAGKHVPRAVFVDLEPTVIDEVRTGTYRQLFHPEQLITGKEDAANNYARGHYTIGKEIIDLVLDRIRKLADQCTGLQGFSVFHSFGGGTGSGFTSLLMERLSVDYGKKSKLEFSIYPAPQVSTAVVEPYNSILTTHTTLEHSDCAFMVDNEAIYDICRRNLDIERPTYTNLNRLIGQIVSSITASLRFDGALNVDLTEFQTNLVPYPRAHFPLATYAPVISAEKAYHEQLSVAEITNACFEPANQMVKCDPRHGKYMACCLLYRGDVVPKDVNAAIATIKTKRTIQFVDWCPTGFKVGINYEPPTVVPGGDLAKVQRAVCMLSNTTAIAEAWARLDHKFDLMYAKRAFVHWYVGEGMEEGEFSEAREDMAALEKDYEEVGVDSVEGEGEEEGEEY
T1 sequence (P02554 whole entry): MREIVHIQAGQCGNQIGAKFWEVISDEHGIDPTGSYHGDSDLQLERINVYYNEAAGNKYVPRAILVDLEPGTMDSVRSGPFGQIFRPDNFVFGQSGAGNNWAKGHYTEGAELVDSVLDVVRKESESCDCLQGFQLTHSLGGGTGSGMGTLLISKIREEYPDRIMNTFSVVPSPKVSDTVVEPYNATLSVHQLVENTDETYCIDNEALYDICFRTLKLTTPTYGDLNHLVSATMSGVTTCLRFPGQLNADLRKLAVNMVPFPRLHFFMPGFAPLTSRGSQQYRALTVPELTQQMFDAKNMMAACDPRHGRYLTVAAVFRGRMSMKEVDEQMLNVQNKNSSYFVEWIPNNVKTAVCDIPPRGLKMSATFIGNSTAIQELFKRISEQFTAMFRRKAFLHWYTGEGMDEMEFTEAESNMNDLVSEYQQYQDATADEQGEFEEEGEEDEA

Compound	inhibition at 5 µM [1]	inhibition at 10 µM [1]	inhibition at 20 µM [1]	GI50 (A549 cells; [10])	GI50 (KB cells)	GI50 [2]	GI50 [3]	GI50 [4]	GI50 [5]	GI50 (MX-1 cells)	GI50 (MCF-7 cells)	GI50 (A549 cells; [11])	GI50 [8]	RI: resistance index [8, 12]	also measured
CN(C)CC#Cc1ccc(OCCCc2sc(N3CCc4cccc(C(=O)Nc5nc6ccccc6s5)c4C3)nc2C(=O)O)c(F)c1 [A1155463]	6.97%	12.1%	23.7%												
Cc1c(-c2ccc(N3CCc4cccc(C(=O)Nc5nc6ccccc6s5)c4C3)nc2C(=O)O)cnn1CC12CC3CC(CC(C3)C1)C2 [A1331852]	5.17%	11.2%	17.5%												
COc1cc2c(c(OC)c1OC)-c1ccc(OC)c(=O)cc1[C@@H](NC(C)=O)CC2 [Colchicine]				38.4 ± 3.37 nM	10.9 ± 1.26 nM	88.8 ± 9.83 nM	838.2 ± 2.62 nM	251 ± 61 nM	1083 ± 2.37 nM	57.9 ± 7.55 nM	51.4 ± 10.8 nM				Tumor growth inhibition (A549/T xenograft): neither paclitaxel nor colchicine can significantly inhibit the tumor growth; GI50 (HCT-116): 79.3 ± 6.59 nM; GI50 (PC-3): 90.5 ± 25.2 nM; GI50 (HepG-2): 57.7 ± 5.41 nM; GI50 (Hela): 124 ± 8.41 nM; GI50 (HL-60): 9.3 ± 3.7 nM; GI50 (MOLM-13): 11.6 ± 1.21 nM; GI50 (K562): 10.7 ± 1.5 nM
CNc1ccc2c(cc1=O)C(NC(C)=O)CCc1cc(OC)c(OC)c(OC)c1-2 (stereo not drawn) [Methylaminocolchicine]				6.88 ± 0.67 nM	6.41 ± 2.39 nM	36.3 ± 6.77 nM	11.4 ± 1.2 nM	47.6 ± 2.82 nM	23.64 ± 0.06 nM	11.2 ± 1.17 nM	20.7 ± 2.8 nM				GI50 (HCT-116): 9.16 ± 4.19 nM; GI50 (PC-3): 9.19 ± 0.81 nM; GI50 (HepG-2): 7.05 ± 1.74 nM; GI50 (Hela): 9.97 ± 2.34 nM; Growth inhibition rate ([6]; methylaminocolchicine alone 40 nM): 3.08% and 0.97%; Growth inhibition rate ([6]; methylaminocolchicine alone 80 nM): 42.77% and 37.66% and 38.92%; GI50 (HL-60): 3.5 ± 0.14 nM; GI50 (MOLM-13): 4.87 ± 0.86 nM; GI50 (K562): 5 ± 0.32 nM; inhibition at 0.02 µM ([1]; read-out: Growth inhibition rate, A549/T, 96 h, methylaminocolchicine alone 20 nM): 1%; inhibition at 0.08 µM ([1]; read-out: Growth inhibition rate, A549/T, 96 h, methylaminocolchicine alone 80 nM): 34.5%
CC1(C)CCC(c2ccc(Cl)cc2)=C(CN2CCN(c3ccc(C(=O)NS(=O)(=O)c4ccc(N[C@H](CCN5CCOCC5)CSc5ccccc5)c(S(=O)(=O)C(F)(F)F)c4)cc3)CC2)C1 [Navitoclax]	2.84%	67.7%	96.3%												
CC(=O)O[C@H]1C(=O)[C@@]2(C)[C@H]([C@H](OC(=O)c3ccccc3)[C@]3(O)C[C@H](OC(=O)[C@H](O)[C@@H](NC(=O)c4ccccc4)c4ccccc4)C(C)=C1C3(C)C)[C@]1(OC(C)=O)CO[C@@H]1C[C@@H]2O [Paclitaxel]				23.1 ± 1.39 nM	3.52 ± 0.95 nM	604 ± 28.6 nM	1130 ± 228 nM	941 ± 265 nM	4760 ± 75 nM	67.3 ± 5.92 nM	58 ± 9.62 nM				Effect on tubulin polymerization (known action of control drugs) (Porcine brain tubulin [7]): promotes tubulin polymerization; Tumor growth inhibition (A549/T xenograft): neither paclitaxel nor colchicine can significantly inhibit the tumor growth; RI: resistance index [2]: 171.48; RI: resistance index [3]: 16.73; RI: resistance index [4]: 16.24; RI: resistance index ([8]; ratio of GI50 A549/T to A549): 209.45
CC1(C)CCC(CN2CCN(c3ccc(C(=O)NS(=O)(=O)c4ccc(NCC5CCOCC5)c([N+](=O)[O-])c4)c(Oc4cnc5[nH]ccc5c4)c3)CC2)=C(c2ccc(Cl)cc2)C1 [Venetoclax]	23.2%	57.7%	95.5%												
CC[C@]1(O)C[C@H]2CN(CCc3c([nH]c4ccccc34)[C@@](C(=O)OC)(c3cc4c(cc3OC)N(C=O)[C@H]3[C@@](O)(C(=O)OC)[C@H](OC(C)=O)[C@]5(CC)C=CCN6CC[C@]43[C@@H]65)C2)C1 [Vincristine]				45.6 ± 3.68 nM	2.69 ± 1.53 nM	268 ± 13.1 nM	262 ± 6.8 nM	576 ± 80.7 nM	1130 ± 12.7 nM	16.7 ± 6.87 nM	159 ± 44.6 nM				Effect on tubulin polymerization (known action of control drugs) (Porcine brain tubulin [7]): inhibits it; RI: resistance index [2]: 99.68; Effect on tubulin polymerization (Porcine brain tubulin [9]): Like vincristine, colchicine could inhibit tubulin polymerization; RI: resistance index [3]: 14.47; RI: resistance index [4]: 3.63; RI: resistance index ([8]; ratio of GI50 A549/T to A549): 24.7
Methylaminocolchicine Hydrochloride												16.9 nM	63.7 nM	3.77	
Methylaminocolchicine Mesylate												17 nM	29.9 nM	1.76	
Methylaminocolchicine Sulfate												21.9 nM	42.4 nM	1.94	
Methylaminocolchicine Tartrate												16.2 nM	32.4 nM	1.99	
Methylaminocolchicine p-Toluenesulfonate												18.3 nM	72.7 nM	3.98	
